Assay results as given in paper PMC10428205, “Cytotoxicity of Ruthenium(II) Arene Complexes Containing Functionalized Ferrocenyl β-Diketonate Ligands” (Organometallics, 2023).

Columns and labels:
[1] = Hydrophobicity, octanol-water shake-flask; assay type: physicochemical
Description: curves to give an average concentration for shaken samples ([C]final). The concentration of an unshaken sample
of stock solution was determined to give [C]initial. The partition coefficient (LogP) was determined with by Eqn1. […]
(§1) All assays were conducted in triplicate.

ARPE-19 = test: 96 h MTT chemosensitivity assay, normal cells; assay type: cell-based, human; details: normal retinal epithelial cells, ± SD, read-out: IC50 against ARPE-19
Description: (§2) LogP = Log ( [C]final ) Eqn1
(§3) 96 h Chemosensitivity Studies
(§4) In vitro chemosensitivity tests were performed at both the University of Huddersfield and the Institute of Cancer Therapeutics, Bradford, in a sterile Class II Biological Safety Cabinet fitted with a HEPA filtered laminar airflow.
(§5) Cellular assays were conducted against human pancreatic carcinoma (MIA PaCa-2), human colorectal carcinoma p53-wildtype (HCT116 p53+/+), and human non-cancerous epithelial retinal cells (ARPE-19). The ARPE-19 cells were obtained from the American Type Culture Collection and provided by the University of Huddersfield. All cell lines were routinely maintained as monolayer cultures in appropriate complete medium and maintained in either T-25 or T-75 flasks at 37 °C and 5% CO2. MIA PaCa-2 and ARPE-19 cells were cultured in high glucose DMEM-F12 medium containing 10% foetal calf serum, and HCT116 p53+/+ was cultured in RPMI 1640 supplemented with 10% foetal calf serum. All medium was supplemented with sodium pyruvate (1 mM) and L-glutamine (2 mM), and prior to chemosensitivity studies, cell monolayers were passaged using Trypsin-EDTA and diluted to a concentration of 1 x 10^4 cells/mL. All assays were conducted using 96-well plates, in which […] of the 1 x 10^4 cells/mL cell suspension was added to each well and incubated for 24 h at 37 °C and 5% CO2. […] After mixing well, the absorbance of each well was measured at 540 nm using a ThermoFisher Multiskan FC spectrophotometer microplate reader. Using the blank and 100% cell controls, the % cell viability was determined [(abs. of compound containing wells – abs. media wells)/(abs. 100% cell suspension well control)] and from this the % cell death (100%- % cell viability) was calculated. On a logarithmic scale, the percentage cell death was plotted against the concentration of compound, and from this the half maximal inhibitory concentration (IC50) value was determined. […]

MIA PaCa-2 = test: Chemosensitivity under hypoxic conditions (0.1% O2, 96 h MTT); assay type: cell-based, human
Description: as §2, §3, §4, §5

HCT116 p53+/+ = test: 96 h MTT chemosensitivity assay; assay type: cell-based, human
Description: as §2, §3, §4
Cellular assays were conducted against human pancreatic carcinoma (MIA PaCa-2), human colorectal carcinoma p53-wildtype (HCT116 p53+/+), and human non-cancerous epithelial retinal cells (ARPE-19). The ARPE-19 cells were obtained from the American Type Culture Collection and provided by the University of Huddersfield. All cell lines were routinely maintained as monolayer cultures in appropriate complete medium and maintained in either T-25 or T-75 flasks at 37 °C and 5% CO2. MIA PaCa-2 and ARPE-19 cells were cultured in high glucose DMEM-F12 medium containing 10% foetal calf serum, and HCT116 p53+/+ was cultured in RPMI 1640 supplemented with 10% foetal calf serum. All medium was supplemented with sodium pyruvate (1 mM) and L-glutamine (2 mM), and prior to chemosensitivity studies, cell monolayers were passaged using Trypsin-EDTA and diluted to a concentration of 1 x 10^4 cells/mL. All assays were conducted using 96-well plates, in which […] of the 1 x 10^4 cells/mL cell suspension was added to each well and incubated for 24 h at 37 °C and 5% CO2. After 24 h, 100 mL of drug dilutions (fresh 100 mM stock solutions in DMSO) in media were added to the plates and then incubated for a further 96 h at 37°C and 5% CO2 (48 h + 48 h recovery period were used for the shorter exposures with MIA PaCa-2 cells only). After 96 h, 20 mL MTT (3-(4,5-dimethylthiazol-2-yl)-2,5-diphenyltetrazolium bromide, 5 mg/mL) was added to each well and incubated for 3 h at 37 °C and 5% CO2. All solutions were then removed from the 96-well plates via pipette and […] of DMSO added to each well to dissolve the purple formazan crystals. After mixing well, the absorbance of each well was measured at 540 nm using a ThermoFisher Multiskan FC spectrophotometer microplate reader. Using the blank and 100% cell controls, the % cell viability was determined [(abs. of compound containing wells – abs. media wells)/(abs. 100% cell suspension well control)] and from this the % cell death (100%- % cell viability) was calculated. On a logarithmic scale, the percentage cell death was plotted against the concentration of compound, and from this the half maximal inhibitory concentration (IC50) value was determined. Each of the experiments were performed in triplicate with mean values being stated as the IC50 ± Standard Deviation (SD). […]
as §1

LogP [1]: -2.20 ± 0.20
IC50 (MIA PaCa-2; MIA PaCa-2, 0.1% O2, 96 h MTT): > 50 µM
IC50 (HCT116 p53+/+; 96 h MTT, ± SD, read-out: IC50 against HCT116 p53+/+): 3.3 ± 0.4 µM
Structure (SMILES): [NH2][Pt]([NH2])([Cl])[Cl] [CDDP, cisplatin, reference compound]
IC50 (ARPE-19): 6 ± 1 µM
fold loss of activity from normoxic to hypoxic conditions (MIA PaCa-2; MIA PaCa-2, 21% vs 0.1% O2): > 14 fold
Selectivity index (SI), IC50 ARPE-19 / IC50 HCT116 p53+/+ (HCT116 p53+/+; 96 h, * = minimum value as at least one IC50 > 100): 1.8
